According to patent US20220356174A1, “PYRIDIN-2-ONE COMPOUNDS USEFUL AS SMARCA2 ANTAGONISTS” (Epizyme, Inc., priority 2018, published 2022):
pIC50: −log10 of the molar value. Read-outs that look alike come from different tables or passages of the source.

Experiments:
FL-SMARCA4 = FL-SMARCA4 (Homo sapiens, UniProt P51532); experiment: SMARCA4 ATPase activity assay (ADP-Glo, chicken mononucleosome substrate)
Protocol: Substrates. Chicken erythrocyte mononucleosomes were prepared from fresh chicken blood collected into anticoagulant and filtered through cheesecloth. The filtered chicken blood was diluted in buffer A (10 mM Tris-HCl, pH 7.4, 10 mM NaCl, 3 mM MgCl2) and centrifuged at 500 g for 15 minutes to collect the erythrocytes. Erythrocyte nuclei were harvested by resuspending the pellets in buffer A containing 0.3% NP-40 detergent. The mixture was stirred with a magnetic bar for 10 mins and centrifuged at 4000 g for 10 minutes. Resuspension, stirring and centrifugation was repeated twice more before the final nuclei pellet was resuspended in buffer A+0.3% NP-40 and stored at −80° C. until purification. For nucleosome purification, nuclei aliquots were rapidly thawed and washed five times with buffer B (10 mM Tris-HCl, pH 7.4, 1 mM CaCl2), 1 mM PMSF) and collected by centrifugation at 2800 g for 10 minutes. Pellets were resuspended in buffer B and treated with 100 U/mL micrococcal nuclease for 40 minutes at 37° C. The reaction was terminated by the addition of 2 mM EDTA and was centrifuged at 2800 g for 10 minutes. The nuclei were then lysed by resuspending the pellet in 1 mM EDTA and 1 mM PMSF and passing the mixture through a 22G needle 4 to 5 times. The solution was then centrifuged at 15,000 g for 20 minutes and the supernatant was collected. The remaining pellet was lysed through the syringe twice more and the supernatants were pooled after centrifugation. The pooled supernatants were further purified by size exclusion chromatography (GE Sephacryl S300 HR 50/100) in buffer C (10 mM HEPES, pH 7.5, 10 mM KCl, 1 mM EDTA, 1 mM PMSF, 10% glycerol). Fractions were analyzed by agarose gel electrophoresis and SDS-PAGE and fractions containing mononucleosomes were pooled and stored at −80° C.
The SMARCA2 or SMARCA4 ATPase assays were identical. The SMARCA2 or SMARCA4 ATPase assays were performed in a buffer consisting of 20 mM Bicine (pH 7.5), 10 mM KCl, 1 mM MgCl2, 1 mM TCEP, 0.005% BSG, and 0.002% Tween 20, prepared on the day of use. Compounds in 100% DMSO were 3-fold serially diluted to produce a 10 point curve for IC50 determination and 0.2 uL were transferred into polypropylene 384-well V-bottom plates (Greiner) using an Echo liquid handler (Labcyte). DMSO (0.2 uL) was added to Columns 11, 12, 23, 24, rows A-H for the maximum signal control and 0.2 uL doxorubicin, a known DNA intercalator, was added to columns 11, 12, 23, 24, rows I-P for the minimum signal control. The SMARCA2 or SMARCA4 enzyme (10 uL) was added to the compounds and allowed to incubate with the compounds for 30 min at room temperature. The SMARCA2 or SMARCA4 ATPase assay was initiated by the addition of 10 uL chicken mononucleosome and ATP mixture (final volume=20 uL). The final concentrations of the assay components were as follows: SMARCA2 or SMARCA4 was 5 nM, ATP was 250 uM, chicken mononucleosome was 10 nM, doxorubicin in the minimum signal control wells was 50 uM, and the DMSO concentration was 1%. 5 uL of the reaction mixture was transferred from the 384-well polypropylene plate to a white opaque polystyrene 384-well plate. At 60 minutes, the assays were terminated by the addition of 5 uL ADP-Glo™ Reagent (Promega). After 40 minutes, the luciferase reaction was initiated by the addition of 10 uL of Kinase Detection Reagent (Promega) and incubated for 1 hour. The ADP product generated from the SMARCA2 or SMARCA4 ATPase reaction was determined via luminescence intensity.

[1] = target: T1, FL-SMARCA2 (full-length human SMARCA2 isoform 1) (Homo sapiens, UniProt P51531); experiment: SMARCA2 ATPase activity assay (ADP-Glo, chicken mononucleosome substrate); format: biochemical; conditions: ATP 250 uM
T1 construct: FLAG tag (YKDDDDK) (C); made in house; host or cells: Sf21 insect cells (baculovirus, pFastBacI)
T1 sequence (P51531 with tags, fused parts or gaps): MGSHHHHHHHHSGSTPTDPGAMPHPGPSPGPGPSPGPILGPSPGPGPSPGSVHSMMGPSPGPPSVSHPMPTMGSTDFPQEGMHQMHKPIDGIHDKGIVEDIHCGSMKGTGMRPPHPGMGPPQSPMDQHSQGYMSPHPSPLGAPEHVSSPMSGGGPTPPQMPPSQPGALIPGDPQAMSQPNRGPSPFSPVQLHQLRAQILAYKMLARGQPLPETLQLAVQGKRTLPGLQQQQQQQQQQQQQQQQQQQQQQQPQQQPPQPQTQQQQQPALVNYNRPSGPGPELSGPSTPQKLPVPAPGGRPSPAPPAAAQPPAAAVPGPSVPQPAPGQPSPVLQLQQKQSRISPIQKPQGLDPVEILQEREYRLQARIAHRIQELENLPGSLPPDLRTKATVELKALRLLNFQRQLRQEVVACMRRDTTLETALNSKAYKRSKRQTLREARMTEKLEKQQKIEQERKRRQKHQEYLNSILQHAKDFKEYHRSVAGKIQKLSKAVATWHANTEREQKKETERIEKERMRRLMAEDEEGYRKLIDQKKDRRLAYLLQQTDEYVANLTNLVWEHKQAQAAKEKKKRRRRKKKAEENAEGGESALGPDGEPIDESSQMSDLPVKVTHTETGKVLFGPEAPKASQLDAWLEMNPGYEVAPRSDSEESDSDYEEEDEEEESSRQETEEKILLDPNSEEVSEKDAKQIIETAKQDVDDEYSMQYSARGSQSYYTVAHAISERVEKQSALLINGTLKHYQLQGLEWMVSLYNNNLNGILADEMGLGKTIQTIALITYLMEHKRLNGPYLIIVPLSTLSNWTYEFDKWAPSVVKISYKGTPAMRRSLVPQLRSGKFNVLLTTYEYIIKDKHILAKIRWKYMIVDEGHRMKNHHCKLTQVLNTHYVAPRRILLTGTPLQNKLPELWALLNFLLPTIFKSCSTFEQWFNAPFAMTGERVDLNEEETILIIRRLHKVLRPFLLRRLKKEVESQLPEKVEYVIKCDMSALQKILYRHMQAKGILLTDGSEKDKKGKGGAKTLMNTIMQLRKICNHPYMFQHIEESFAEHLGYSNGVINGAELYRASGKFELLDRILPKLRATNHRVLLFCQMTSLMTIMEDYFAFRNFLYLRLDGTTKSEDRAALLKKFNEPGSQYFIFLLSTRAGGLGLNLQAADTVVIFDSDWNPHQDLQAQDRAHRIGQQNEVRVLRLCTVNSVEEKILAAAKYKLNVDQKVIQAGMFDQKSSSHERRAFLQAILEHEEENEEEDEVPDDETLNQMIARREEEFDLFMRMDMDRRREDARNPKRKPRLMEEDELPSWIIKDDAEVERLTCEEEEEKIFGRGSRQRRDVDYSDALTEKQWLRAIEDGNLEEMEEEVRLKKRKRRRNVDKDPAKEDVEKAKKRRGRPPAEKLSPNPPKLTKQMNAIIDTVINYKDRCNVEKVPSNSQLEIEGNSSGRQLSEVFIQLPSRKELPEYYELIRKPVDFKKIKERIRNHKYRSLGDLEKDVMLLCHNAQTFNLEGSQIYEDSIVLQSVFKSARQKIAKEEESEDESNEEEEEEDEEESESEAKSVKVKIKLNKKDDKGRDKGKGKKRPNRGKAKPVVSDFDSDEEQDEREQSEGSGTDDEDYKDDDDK

[2] = FL-SMARCA4 IC50, Table 3.2, ATPase assay, enzyme 5 nM, ATP 250 uM, chicken mononucleosome 10 nM, 30 min preincubation
[3] = Table 3.1, ATPase assay, enzyme 5 nM, chicken mononucleosome 10 nM, 30 min preincubation
[4] = FL-SMARCA4 IC50, Table 3a.2, SMARCA4 5 nM, ATP 250 uM, mononucleosome 10 nM
[5] = Table 3a.1, SMARCA2 5 nM, mononucleosome 10 nM
[6] = FL-SMARCA4 IC>50, Table 3c.2, ATPase assay, enzyme 5 nM, ATP 250 uM, chicken mononucleosome 10 nM, 30 min preincubation
[7] = Table 3c.1, ATPase assay, enzyme 5 nM, chicken mononucleosome 10 nM, 30 min preincubation
[8] = FL-SMARCA4 IC50, Table 3b.2, SMARCA4 5 nM, ATP 250 uM, mononucleosome 10 nM
[9] = Table 3b.1, SMARCA2 5 nM, mononucleosome 10 nM
[10] = Table 3d.1, ATPase assay, enzyme 5 nM, chicken mononucleosome 10 nM, 30 min preincubation, read-out: FL-SMARCA2 IC>50

Chain of FL-SMARCA4 (P51532 whole entry, canonical isoform): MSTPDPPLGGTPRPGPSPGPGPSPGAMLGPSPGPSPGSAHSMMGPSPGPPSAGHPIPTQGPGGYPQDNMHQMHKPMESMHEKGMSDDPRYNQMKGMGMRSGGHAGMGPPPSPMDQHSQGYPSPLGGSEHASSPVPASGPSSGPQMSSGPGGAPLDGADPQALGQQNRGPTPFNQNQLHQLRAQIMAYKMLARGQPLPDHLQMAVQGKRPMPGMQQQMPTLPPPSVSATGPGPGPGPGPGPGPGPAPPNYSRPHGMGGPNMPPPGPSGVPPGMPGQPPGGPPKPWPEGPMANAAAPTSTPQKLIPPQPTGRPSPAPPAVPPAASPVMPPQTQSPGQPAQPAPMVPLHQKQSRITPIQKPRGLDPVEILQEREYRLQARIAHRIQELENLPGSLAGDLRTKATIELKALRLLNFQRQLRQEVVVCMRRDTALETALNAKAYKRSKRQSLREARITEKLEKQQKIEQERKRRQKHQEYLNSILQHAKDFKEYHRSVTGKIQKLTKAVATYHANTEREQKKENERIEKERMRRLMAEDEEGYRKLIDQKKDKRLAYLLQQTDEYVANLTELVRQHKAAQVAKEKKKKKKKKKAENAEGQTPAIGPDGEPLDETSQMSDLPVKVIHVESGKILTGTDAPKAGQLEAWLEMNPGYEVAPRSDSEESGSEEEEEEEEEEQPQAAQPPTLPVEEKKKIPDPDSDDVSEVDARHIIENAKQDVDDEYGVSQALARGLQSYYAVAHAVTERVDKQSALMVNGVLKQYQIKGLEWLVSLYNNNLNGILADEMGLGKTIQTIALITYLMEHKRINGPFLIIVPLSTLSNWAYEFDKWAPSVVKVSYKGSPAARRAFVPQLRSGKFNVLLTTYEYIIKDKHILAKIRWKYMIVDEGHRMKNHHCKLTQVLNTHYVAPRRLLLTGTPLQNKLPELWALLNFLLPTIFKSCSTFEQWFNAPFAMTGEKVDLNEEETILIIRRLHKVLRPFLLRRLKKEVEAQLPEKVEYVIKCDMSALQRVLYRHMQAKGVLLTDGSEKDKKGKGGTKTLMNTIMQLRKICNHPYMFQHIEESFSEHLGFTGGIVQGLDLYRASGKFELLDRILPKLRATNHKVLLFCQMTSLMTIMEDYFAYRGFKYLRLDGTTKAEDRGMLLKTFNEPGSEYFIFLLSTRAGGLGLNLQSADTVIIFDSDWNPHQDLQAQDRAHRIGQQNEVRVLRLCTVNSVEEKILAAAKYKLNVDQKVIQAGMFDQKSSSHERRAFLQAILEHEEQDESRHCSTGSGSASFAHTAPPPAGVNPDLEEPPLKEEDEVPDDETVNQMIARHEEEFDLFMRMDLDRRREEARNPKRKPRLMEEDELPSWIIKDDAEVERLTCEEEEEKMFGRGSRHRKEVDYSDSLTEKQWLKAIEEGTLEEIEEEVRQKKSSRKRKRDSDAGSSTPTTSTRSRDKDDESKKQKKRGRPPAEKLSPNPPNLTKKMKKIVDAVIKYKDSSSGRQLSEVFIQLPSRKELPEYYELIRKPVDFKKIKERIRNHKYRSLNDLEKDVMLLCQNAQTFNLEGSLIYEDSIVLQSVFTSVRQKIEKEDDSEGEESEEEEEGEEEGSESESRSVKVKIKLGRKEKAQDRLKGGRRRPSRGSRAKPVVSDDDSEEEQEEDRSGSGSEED

Q: Which results are given for `Cn1cc(NC(=O)c2cc(Cl)cs2)cc(Br)c1=O` [Compound 8]?
A: pIC50 (FL-SMARCA4; [2]): < 4.30; pIC50 [1, 3]: < 4.30

Q: What does the source list for `CCn1cc(NC(=O)c2cnc(Cl)c(Cl)c2)ccc1=O` [Compound 16a]?
A: pIC50 (FL-SMARCA4; [4]): < 4.30; pIC50 [1, 5]: 4.57

Q: What does the source list for `CCn1cc(NC(=O)c2cc(C#N)c(Cl)s2)cc(F)c1=O` [Compound 180]?
A: pIC50 (FL-SMARCA4; [2]): 6.42; pIC50 [1, 3]: 7.07

Q: Which results are given for `O=C(Nc1cc(Cl)c(=O)n(CC(F)(F)F)c1)c1cc(Cl)c(Cl)s1` [Compound 102]?
A: pIC50 (FL-SMARCA4; [2]): 4.73; pIC50 [1, 3]: 5.38

Q: How did the pIC50 (FL-SMARCA4; [6]) turn out when `N#Cc1sc(C(=O)Nc2cc(F)c(=O)n(CC(F)F)c2)cc1C#CC1COC1` [Compound 93c] was run?
A: < 4.30

Q: What about the pIC50 [1, 7] of the same compound?
A: < 4.30

Q: `CCn1cc(NC(=O)c2ccc3ccccc3n2)ccc1=O` [Compound 26a] was tested. Which pIC50 (FL-SMARCA4; [4]) did it give?
A: < 4.30

Q: What about the pIC50 [1, 5] of the same compound?
A: < 4.30

Q: `CCn1cc(NC(=O)[C@@H]2CCC[C@H](Cl)C2)ccc1=O` [Compound 13b] was tested. Which pIC50 (FL-SMARCA4; [8]) did it give?
A: < 4.30

Q: And the pIC50 [1, 9]?
A: < 4.30

Q: With `O=C(Nc1cc(F)c(=O)n(CCF)c1)c1cc(C#Cc2cccnc2)c(Cl)s1` [Compound 328] as the compound, how does the pIC50 (FL-SMARCA4; [2]) read?
A: 6.97

Q: And the pIC50 [1, 3]?
A: 7.42

Q: With `O=C(Nc1cc(F)c(=O)n(CC(F)F)c1)c1nc(Cl)c(Cl)[nH]1` [Compound 39d] as the compound, how does the pIC50 (FL-SMARCA4; FL-SMARCA4 IC50) read?
A: < 4.30

Q: What about the pIC50 [1, 10] of the same compound?
A: < 4.30

Q: Which results are given for `O=C(Nc1cc(F)c(=O)n(CC(F)F)c1)c1coc(Cl)n1` [Compound 37d]?
A: pIC50 (FL-SMARCA4; FL-SMARCA4 IC50): < 4.30; pIC50 [1, 10]: < 4.30

Q: With `N#Cc1cc(C(=O)Nc2cc(F)c(=O)n(CCF)c2)ccc1Cl` [Compound 18b] as the compound, how does the pIC50 (FL-SMARCA4; [8]) read?
A: 5.27

Q: What about the pIC50 [1, 9] of the same compound?
A: 6.04

Q: How did the pIC50 (FL-SMARCA4; [2]) turn out when `CCn1cc(NC(=O)c2cc(Cl)c(Cl)s2)cc(C)c1=O` [Compound 105] was run?
A: < 4.30

Q: And the pIC50 [1, 3]?
A: 4.56

Q: Which results are given for `O=C(Nc1cc(Cl)c(=O)n(CCF)c1)c1cc(Cl)n[nH]1` [Compound 156]?
A: pIC50 (FL-SMARCA4; [2]): 6.05; pIC50 [1, 3]: 6.63

Q: With `O=C(Nc1cc(F)c(=O)n(CC(F)F)c1)c1cc(C#CC2COC2)c(F)s1` [Compound 108c] as the compound, how does the pIC50 (FL-SMARCA4; [6]) read?
A: 6.70

Q: What about the pIC50 [1, 7] of the same compound?
A: 7.09

Q: How did the pIC50 (FL-SMARCA4; [6]) turn out when `O=C(Nc1cc(F)c(=O)n(CC(F)F)c1)c1cnc(C#Cc2ccncc2)s1` [Compound 33c] was run?
A: 5.09

Q: What about the pIC50 [1, 7] of the same compound?
A: 5.05

Q: What does the source list for `Cn1ccc(-c2cc(NC(=O)c3cc(Cl)c(C(F)(F)F)s3)cn(CC(F)F)c2=O)n1` [Compound 103c]?
A: pIC50 (FL-SMARCA4; [6]): 4.59; pIC50 [1, 7]: 4.50

Q: With `N#Cc1cc(C(=O)Nc2cc(F)c(=O)n(CCF)c2)oc1C#N` [Compound 246] as the compound, how does the pIC50 (FL-SMARCA4; [2]) read?
A: 5.20

Q: And the pIC50 [1, 3]?
A: 5.87

Q: Which results are given for `CCn1cc(NC(=O)c2cc(Cl)c(Cl)s2)cc(Cc2ccccc2)c1=O` [Compound 120]?
A: pIC50 (FL-SMARCA4; [2]): < 4.30; pIC50 [1, 3]: < 4.30

Q: Which results are given for `CN1CCC(C#Cc2cc(C(=O)Nc3cc(F)c(=O)n(CC(F)F)c3)sc2Cl)CC1` [Compound 29c]?
A: pIC50 (FL-SMARCA4; [6]): 4.38; pIC50 [1, 7]: 4.60

Q: How did the pIC50 (FL-SMARCA4; [6]) turn out when `Cn1cncc1-c1cc(NC(=O)c2sc(C(F)(F)F)cc2Cl)cn(CC(F)F)c1=O` [Compound 38c] was run?
A: < 4.30

Q: And the pIC50 [1, 7]?
A: < 4.30

Q: With `O=C(Nc1cc(F)c(=O)n(CC(F)F)c1)c1cnc(C(F)(F)F)c(F)c1` [Compound 69a] as the compound, how does the pIC50 (FL-SMARCA4; [4]) read?
A: 5.07

Q: What about the pIC50 [1, 5] of the same compound?
A: 5.81

Q: With `Cn1nc(C(=O)Nc2cc(F)c(=O)n(CCF)c2)cc1Cl` [Compound 230] as the compound, how does the pIC50 (FL-SMARCA4; [2]) read?
A: < 4.30

Q: And the pIC50 [1, 3]?
A: < 4.30

Q: Which results are given for `O=C(Nc1cc(C#CCO)c(=O)n(CC(F)F)c1)c1cc(F)c(Cl)s1` [Compound 4c]?
A: pIC50 (FL-SMARCA4; [6]): 4.74; pIC50 [1, 7]: 5.16

Q: With `CSc1cc(C(=O)Nc2cc(F)c(=O)n(CC(F)F)c2)sc1Cl` [Compound 341] as the compound, how does the pIC50 (FL-SMARCA4; [2]) read?
A: 5.03

Q: What about the pIC50 [1, 3] of the same compound?
A: 6.18

Q: With `Cn1cnc(-c2cc(NC(=O)c3sc(C(F)(F)F)cc3Cl)cn(CC(F)F)c2=O)c1` [Compound 27c] as the compound, how does the pIC50 (FL-SMARCA4; [6]) read?
A: < 4.30

Q: And the pIC50 [1, 7]?
A: < 4.30

Q: How did the pIC50 (FL-SMARCA4; [2]) turn out when `CCn1cc(NC(=O)c2cc(Cl)[nH]c2Cl)ccc1=O` [Compound 97] was run?
A: < 4.30

Q: And the pIC50 [1, 3]?
A: < 4.30

Q: With `N#Cc1cc(NC(=O)c2cc(Cl)c(Cl)[nH]2)cn(CC(F)(F)F)c1=O` [Compound 211] as the compound, how does the pIC50 (FL-SMARCA4; [2]) read?
A: 4.56

Q: And the pIC50 [1, 3]?
A: 5.64

Q: With `N#Cc1sc(C(=O)Nc2cc(C#N)c(=O)n(CCF)c2)cc1Cl` [Compound 210] as the compound, how does the pIC50 (FL-SMARCA4; [2]) read?
A: 6.16

Q: And the pIC50 [1, 3]?
A: 6.68

Q: `CCn1cc(NC(=O)c2cnc(Cl)s2)cc(F)c1=O` [Compound 130] was tested. Which pIC50 (FL-SMARCA4; [2]) did it give?
A: 6.35

Q: What about the pIC50 [1, 3] of the same compound?
A: 6.83

Q: Which results are given for `CCn1cc(NC(=O)c2cc(Cl)c(-c3ncco3)s2)ccc1=O` [Compound 283]?
A: pIC50 (FL-SMARCA4; [2]): < 4.30; pIC50 [1, 3]: 4.48

Q: How did the pIC50 (FL-SMARCA4; [2]) turn out when `O=C(Nc1cc(F)c(=O)n(CCF)c1)c1cc(Cl)c(CC(F)(F)F)s1` [Compound 319] was run?
A: 4.78

Q: What about the pIC50 [1, 3] of the same compound?
A: 5.88

Q: How did the pIC50 (FL-SMARCA4; [6]) turn out when `Cn1cc(-c2cc(NC(=O)c3cc(Cl)c(C(F)(F)F)s3)cn(CC(F)F)c2=O)cn1` [Compound 14c] was run?
A: < 4.30

Q: And the pIC50 [1, 7]?
A: < 4.30

Q: How did the pIC50 (FL-SMARCA4; [2]) turn out when `CCn1cc(NC(=O)c2nnc(C)s2)ccc1=O` [Compound 78] was run?
A: < 4.30

Q: And the pIC50 [1, 3]?
A: < 4.30
